# Data reported in ChEMBL document CHEMBL1201862, “PubChem BioAssay data set” (2004).
# Calls of active or inactive are those of the source.
# Tests used:
# [1] = biological target: T1, Coagulation factor XII (Homo sapiens, UniProt P00748); assay type: functional;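 note: activated factor XIIa alpha cleaving a fluorogenic AMC peptide substrate; inhibitor potency from loss of enzyme activity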
# T1 sequence (P00748 whole entry): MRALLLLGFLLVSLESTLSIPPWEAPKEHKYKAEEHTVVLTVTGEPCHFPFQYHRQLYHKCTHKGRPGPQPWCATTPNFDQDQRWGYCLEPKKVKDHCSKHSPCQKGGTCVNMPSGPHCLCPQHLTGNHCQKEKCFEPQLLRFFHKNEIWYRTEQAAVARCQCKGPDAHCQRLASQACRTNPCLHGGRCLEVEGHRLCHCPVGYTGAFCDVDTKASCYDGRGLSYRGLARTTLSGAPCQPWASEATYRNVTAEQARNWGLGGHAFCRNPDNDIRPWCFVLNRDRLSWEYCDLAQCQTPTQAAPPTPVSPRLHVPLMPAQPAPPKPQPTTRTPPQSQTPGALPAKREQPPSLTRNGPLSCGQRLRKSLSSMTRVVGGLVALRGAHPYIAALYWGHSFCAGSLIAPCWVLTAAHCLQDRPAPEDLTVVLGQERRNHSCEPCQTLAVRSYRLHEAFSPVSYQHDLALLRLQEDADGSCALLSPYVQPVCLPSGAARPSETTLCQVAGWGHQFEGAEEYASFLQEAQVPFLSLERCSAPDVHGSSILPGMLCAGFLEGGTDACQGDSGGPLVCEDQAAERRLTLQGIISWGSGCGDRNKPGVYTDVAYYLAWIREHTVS
# [2] = biological target: Voltage-dependent T-type calcium channel subunit alpha-1H (Homo sapiens, UniProt O95180); assay type: functional;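 note: channel activity triggered by adding a high calcium stimulation buffer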
# Chain of Voltage-dependent T-type calcium channel subunit alpha-1H (O95180 whole entry): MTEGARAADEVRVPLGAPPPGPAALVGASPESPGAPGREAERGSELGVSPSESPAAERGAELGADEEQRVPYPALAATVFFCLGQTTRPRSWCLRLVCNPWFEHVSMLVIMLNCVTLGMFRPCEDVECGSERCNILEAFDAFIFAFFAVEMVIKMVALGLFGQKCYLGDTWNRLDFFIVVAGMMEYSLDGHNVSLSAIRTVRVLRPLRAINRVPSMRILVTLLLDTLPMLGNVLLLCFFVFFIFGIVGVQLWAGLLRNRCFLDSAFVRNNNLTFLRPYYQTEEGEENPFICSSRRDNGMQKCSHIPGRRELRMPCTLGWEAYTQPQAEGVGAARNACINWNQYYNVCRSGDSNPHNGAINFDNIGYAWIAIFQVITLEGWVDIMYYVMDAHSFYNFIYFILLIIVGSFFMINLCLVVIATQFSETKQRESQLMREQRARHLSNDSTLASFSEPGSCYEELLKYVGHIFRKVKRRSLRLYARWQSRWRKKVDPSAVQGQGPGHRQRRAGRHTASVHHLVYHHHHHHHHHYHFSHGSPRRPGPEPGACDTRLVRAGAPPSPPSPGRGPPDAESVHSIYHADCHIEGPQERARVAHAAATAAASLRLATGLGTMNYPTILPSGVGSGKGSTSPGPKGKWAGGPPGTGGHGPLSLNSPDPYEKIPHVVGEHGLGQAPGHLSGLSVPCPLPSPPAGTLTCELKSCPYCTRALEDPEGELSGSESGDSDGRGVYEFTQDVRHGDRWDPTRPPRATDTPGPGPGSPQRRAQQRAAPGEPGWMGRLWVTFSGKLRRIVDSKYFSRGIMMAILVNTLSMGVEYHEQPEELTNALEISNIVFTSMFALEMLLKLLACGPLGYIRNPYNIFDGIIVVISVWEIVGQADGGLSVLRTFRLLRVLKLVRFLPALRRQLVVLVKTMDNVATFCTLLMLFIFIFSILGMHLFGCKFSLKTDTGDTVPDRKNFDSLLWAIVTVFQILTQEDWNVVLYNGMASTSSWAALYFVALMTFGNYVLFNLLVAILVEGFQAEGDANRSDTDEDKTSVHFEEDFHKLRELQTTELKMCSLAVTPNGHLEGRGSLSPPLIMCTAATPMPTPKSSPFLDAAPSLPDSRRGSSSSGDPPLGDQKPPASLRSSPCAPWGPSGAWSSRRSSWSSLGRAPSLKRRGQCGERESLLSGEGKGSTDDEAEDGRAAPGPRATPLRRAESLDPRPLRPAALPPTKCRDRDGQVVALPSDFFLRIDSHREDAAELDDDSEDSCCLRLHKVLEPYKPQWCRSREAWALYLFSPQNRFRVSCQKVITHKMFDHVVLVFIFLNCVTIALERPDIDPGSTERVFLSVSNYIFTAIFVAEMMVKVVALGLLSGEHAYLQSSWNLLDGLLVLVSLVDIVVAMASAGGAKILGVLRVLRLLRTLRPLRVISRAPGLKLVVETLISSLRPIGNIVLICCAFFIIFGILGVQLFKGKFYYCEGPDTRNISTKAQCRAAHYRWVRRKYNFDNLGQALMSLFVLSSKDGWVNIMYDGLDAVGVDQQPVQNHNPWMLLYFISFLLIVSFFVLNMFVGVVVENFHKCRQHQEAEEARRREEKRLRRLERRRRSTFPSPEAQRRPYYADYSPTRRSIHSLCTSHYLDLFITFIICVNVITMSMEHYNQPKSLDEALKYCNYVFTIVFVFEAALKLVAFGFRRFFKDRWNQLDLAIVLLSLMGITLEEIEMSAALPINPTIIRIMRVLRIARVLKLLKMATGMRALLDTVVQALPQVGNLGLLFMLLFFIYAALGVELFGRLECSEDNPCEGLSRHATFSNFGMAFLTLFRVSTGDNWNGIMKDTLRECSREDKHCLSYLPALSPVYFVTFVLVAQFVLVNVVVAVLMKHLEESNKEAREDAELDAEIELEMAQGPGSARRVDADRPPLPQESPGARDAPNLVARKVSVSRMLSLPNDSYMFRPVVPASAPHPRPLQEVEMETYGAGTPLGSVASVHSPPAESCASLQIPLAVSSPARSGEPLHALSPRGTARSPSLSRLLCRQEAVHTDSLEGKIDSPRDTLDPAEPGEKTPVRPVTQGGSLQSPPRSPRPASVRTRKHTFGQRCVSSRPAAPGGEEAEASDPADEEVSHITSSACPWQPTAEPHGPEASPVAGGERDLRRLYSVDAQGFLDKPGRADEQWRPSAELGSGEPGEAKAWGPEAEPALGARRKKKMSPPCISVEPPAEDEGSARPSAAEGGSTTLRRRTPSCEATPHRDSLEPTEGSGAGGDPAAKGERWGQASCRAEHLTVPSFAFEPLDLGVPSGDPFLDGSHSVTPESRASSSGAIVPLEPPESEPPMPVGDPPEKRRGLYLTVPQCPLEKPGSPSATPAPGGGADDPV
# [3] = biological target: DNA dC->dU-editing enzyme APOBEC-3A (Homo sapiens, UniProt P31941); experiment: APOBEC3A DNA deaminase inhibitors, dose response, biochemical (AID 504722); assay type: functional
# Chain of DNA dC->dU-editing enzyme APOBEC-3A (P31941 whole entry): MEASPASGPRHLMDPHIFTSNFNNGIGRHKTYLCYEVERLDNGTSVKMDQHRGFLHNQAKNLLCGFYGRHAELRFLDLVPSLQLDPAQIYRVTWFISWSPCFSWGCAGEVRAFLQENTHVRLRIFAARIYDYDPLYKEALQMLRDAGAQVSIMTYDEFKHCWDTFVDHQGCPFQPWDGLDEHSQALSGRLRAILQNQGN
# [4] = biological target: DNA dC->dU-editing enzyme APOBEC-3G (Homo sapiens, UniProt Q9HC16); experiment: Dose Response confirmation of small molecule APOBEC3G DNA Deaminase Inhibitors via a fluorescence-based single-stranded DNA deaminase assay. [Related pubchem assays (depositor defined):AID493012, AID493028]; assay type: functional
# Chain of DNA dC->dU-editing enzyme APOBEC-3G (Q9HC16 whole entry): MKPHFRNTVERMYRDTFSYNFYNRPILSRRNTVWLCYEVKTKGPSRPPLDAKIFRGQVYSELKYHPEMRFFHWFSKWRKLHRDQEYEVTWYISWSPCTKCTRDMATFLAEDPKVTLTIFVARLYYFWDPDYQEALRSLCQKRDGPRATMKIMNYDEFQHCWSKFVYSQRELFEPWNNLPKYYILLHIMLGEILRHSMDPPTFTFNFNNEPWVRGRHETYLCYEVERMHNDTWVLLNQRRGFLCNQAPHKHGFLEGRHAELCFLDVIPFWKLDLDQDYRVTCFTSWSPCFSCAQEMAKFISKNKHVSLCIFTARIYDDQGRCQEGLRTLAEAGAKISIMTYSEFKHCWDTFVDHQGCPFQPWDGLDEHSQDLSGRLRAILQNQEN
# [5] = Luminescence Cell-Based Dose Response HTS to Identify Inhibitors of 5'UTR Stem-Loop Driven Prion Protein mRNA Translation in H4 Neuroglioblastoma Cells. [Related pubchem assays: 1827 (Project Summary), 1813 (Primary HTS)]; assay type: functional
# [6] = inhibitors of firefly luciferase expression or activity, dose response, H4 neuroglioma cells, luminescence (AID 1990); assay type: functional, cell-based
# [7] = inhibitors of SNCA 5'UTR-driven reporter translation, confirmation, H4 neuroglioma cells, luminescence (AID 1988); assay type: functional, cell-based
# [8] = biological target: T2, Alkaline phosphatase, tissue-nonspecific isozyme (Homo sapiens, UniProt P05186); experiment: human TNAP enzyme inhibitors, SAR follow-up, biochemical, luminescent, dose response (AID 1056)
# T2 sequence (P05186 whole entry): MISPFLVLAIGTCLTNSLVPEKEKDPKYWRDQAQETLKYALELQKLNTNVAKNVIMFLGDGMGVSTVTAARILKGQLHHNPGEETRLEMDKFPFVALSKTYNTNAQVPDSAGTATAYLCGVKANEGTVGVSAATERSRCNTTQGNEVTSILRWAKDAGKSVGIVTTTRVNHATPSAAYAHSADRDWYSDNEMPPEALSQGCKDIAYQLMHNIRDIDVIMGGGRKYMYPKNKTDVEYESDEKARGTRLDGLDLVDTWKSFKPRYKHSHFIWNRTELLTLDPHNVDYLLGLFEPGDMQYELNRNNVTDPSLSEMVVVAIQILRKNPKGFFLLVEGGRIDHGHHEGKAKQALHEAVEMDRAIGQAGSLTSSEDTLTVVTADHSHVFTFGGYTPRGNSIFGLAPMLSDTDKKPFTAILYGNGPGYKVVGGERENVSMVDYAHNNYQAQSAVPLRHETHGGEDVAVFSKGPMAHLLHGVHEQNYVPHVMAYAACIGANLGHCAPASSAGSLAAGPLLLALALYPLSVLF
# [9] = biological target: Glyceraldehyde-3-phosphate dehydrogenase (Homo sapiens, UniProt P04406)
# Chain of Glyceraldehyde-3-phosphate dehydrogenase (P04406 whole entry): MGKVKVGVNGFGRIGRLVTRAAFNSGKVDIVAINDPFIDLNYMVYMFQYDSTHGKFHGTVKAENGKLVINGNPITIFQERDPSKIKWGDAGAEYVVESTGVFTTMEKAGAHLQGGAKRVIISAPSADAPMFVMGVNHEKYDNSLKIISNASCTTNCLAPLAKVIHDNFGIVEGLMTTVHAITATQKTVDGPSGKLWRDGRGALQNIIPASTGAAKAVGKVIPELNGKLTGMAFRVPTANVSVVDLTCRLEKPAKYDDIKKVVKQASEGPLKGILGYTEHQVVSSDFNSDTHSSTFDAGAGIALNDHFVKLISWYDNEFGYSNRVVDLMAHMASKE
# [10] = A cytotoxicity screen of small molecule inhibitors of the PhoP region in Salmonella typhi identified in the primary screen. [Related pubchem assays: 1850, 1864, 1985 ]; assay type: functional
# [11] = biological target: Melanin-concentrating hormone receptor 1 (Homo sapiens, UniProt Q99705); experiment: Fluorescence-based counterscreen for antagonists of the G-protein coupled receptor 7 (GPR7): cell-based high throughput dose response assay to identify antagonists of the melanin-concentrating hormone receptor 1 (MCHR1).; assay type: functional
# Chain of Melanin-concentrating hormone receptor 1 (Q99705 whole entry): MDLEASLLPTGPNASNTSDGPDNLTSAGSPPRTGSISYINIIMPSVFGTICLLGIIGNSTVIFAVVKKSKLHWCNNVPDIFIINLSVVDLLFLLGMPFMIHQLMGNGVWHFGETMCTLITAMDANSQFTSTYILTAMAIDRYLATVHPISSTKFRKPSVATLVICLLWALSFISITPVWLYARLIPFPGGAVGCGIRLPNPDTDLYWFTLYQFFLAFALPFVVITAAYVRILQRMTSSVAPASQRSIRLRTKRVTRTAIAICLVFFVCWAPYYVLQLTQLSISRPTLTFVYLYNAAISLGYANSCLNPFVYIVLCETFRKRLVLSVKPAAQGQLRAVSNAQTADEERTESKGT
smiles,measurement,setting,value
CSc1ccccc1C(=O)C1CCCN(S(=O)(=O)N(C)C)C1 (configuration not stated),IC50,[1],> 50 µM (inactive)
CCOc1ccccc1NC(=O)C1CCCN(S(=O)(=O)c2ccc(OC)c(C)c2)C1 (configuration not stated),EC50,[2],13.6 µM (active)
C=CCn1c(S)nnc1-c1cccc(S(=O)(=O)N(CC)CC)c1,IC50,[3],> 100 µM (inactive)
same,IC50,[4],5.67 µM (active)
Cc1nc2cc(-c3ccccc3)nn2c(C)c1CCC(=O)N1CCN(c2ccccc2)CC1,EC50,[5],13.6 µM (active)
same,EC50,[6],16.6 µM (active)
same,EC50,[2],4.59 µM (active)
same,EC50,[7],16.1 µM (active)
CCOc1ccc(S(=O)(=O)Nc2cnc3ccccc3c2)cc1,IC50,[8],> 100 µM (inactive)
same,IC50,[9],> 100 µM (not active)
O=C1c2ccccc2C(=O)N1CCC(c1ccccc1)c1ccco1 (configuration not stated),EC50,[10],> 50 µM (active)
O=C(c1ccco1)N1CCN(S(=O)(=O)c2ccc(S(=O)(=O)NC3CCCCC3)cc2)CC1,IC50,[11],23.8 µM (not active)
